Structures are written as SMILES.

What all share (assay type): functional
Experiment [1] is described as follows: Interaction percent with DPPH after 60 minutes was determined at 0.2 mM concentration. In general terms: The DPPH test is a chemical assay of radical scavenging.
The nature of experiment [2]: Interaction percent with DPPH after 60 minutes was determined at 0.5 mM concentration.
Experiment [3] is described as follows: Interaction percent with DPPH after 20 minutes was determined at 0.5 mM concentration.
Experiment [4] is described as follows: Interaction percent with DPPH after 20 minutes was determined at 0.2 mM concentration.
Experiment [5] concerns the target Serine protease 1 (Homo sapiens) (UniProt P07477). Description: Compound was evaluated for in vitro inhibition of trypsin induced proteolysis at 0.1 mM concentration.
The target of experiment [6] is T1, Beta-glucuronidase (Bos taurus) (UniProt A3KMY8).
T1 sequence (whole entry): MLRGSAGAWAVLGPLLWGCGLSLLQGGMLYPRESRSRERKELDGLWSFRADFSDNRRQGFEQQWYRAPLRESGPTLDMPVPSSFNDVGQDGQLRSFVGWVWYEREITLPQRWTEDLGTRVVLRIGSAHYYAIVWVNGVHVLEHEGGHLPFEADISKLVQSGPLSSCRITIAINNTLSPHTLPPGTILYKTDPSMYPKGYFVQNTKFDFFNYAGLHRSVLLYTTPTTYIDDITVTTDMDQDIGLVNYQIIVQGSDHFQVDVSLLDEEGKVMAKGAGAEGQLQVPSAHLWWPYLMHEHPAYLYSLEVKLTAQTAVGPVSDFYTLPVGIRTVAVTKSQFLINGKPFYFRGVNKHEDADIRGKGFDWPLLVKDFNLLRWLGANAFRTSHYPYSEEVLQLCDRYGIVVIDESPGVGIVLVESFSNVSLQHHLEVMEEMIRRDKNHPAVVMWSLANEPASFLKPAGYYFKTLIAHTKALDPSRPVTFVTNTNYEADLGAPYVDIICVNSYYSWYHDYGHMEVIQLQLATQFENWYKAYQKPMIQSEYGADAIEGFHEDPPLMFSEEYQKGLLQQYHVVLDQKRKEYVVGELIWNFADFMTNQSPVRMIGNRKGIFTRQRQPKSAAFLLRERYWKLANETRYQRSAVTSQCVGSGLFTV
Description: Compound was evaluated for in vitro inhibition of beta-glucuronidase at 0.1 mM concentration; […].

A short description of experiment [7]: Competition percent of compound with DMSO for hydroxyl radical was determined at 0.01 mM concentration.
Experiment [8] addresses T1, Beta-glucuronidase (Bos taurus). The experiment in a line: Compound was evaluated for in vitro inhibition of beta-glucuronidase at 1 mM concentration.
For experiment [9], the target named is Serine protease 1 (Homo sapiens) (UniProt P07477). The experiment in a line: Compound was evaluated for in vitro inhibition of trypsin induced proteolysis at 1 mM concentration.
Serine protease 1 (Homo sapiens), sequence (P07477 whole entry): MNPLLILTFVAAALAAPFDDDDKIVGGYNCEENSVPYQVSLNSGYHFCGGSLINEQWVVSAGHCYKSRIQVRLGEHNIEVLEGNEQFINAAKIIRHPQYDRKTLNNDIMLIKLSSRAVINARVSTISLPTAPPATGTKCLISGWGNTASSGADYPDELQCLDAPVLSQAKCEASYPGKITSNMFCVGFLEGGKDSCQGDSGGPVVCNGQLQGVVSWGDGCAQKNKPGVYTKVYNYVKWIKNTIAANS
The target in experiment [10] is Chymotrypsinogen B (Homo sapiens) (UniProt P17538). The experiment in a line: Compound was evaluated for in vitro inhibition of chymotrypsinogen acting as esterase at 0.1 mM concentration.
Chymotrypsinogen B (Homo sapiens), sequence (P17538 34-164 limits assumed, other chains not shown): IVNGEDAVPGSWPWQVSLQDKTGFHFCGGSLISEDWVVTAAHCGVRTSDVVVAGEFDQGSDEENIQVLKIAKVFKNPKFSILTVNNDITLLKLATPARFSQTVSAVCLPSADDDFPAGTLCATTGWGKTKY
Chymotrypsinogen B (Homo sapiens), sequence (P17538 167-263 limits assumed, other chains not shown): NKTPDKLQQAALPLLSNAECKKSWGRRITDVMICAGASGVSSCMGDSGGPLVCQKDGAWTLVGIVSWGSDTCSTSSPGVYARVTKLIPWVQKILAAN
Experiment [11] has the same target. The experiment in a line: Compound was evaluated for in vitro inhibition of chymotrypsinogen induced proteolysis at 0.1 mM concentration.
Experiment [12] deals with Serine protease 1 (Homo sapiens) (UniProt P07477). The experiment in a line: Compound was evaluated for in vitro inhibition of trypsin acting as esterase at 0.1 mM concentration.
A short description of experiment [13]: Interaction percent with DPPH after 60 minutes was determined at 0.1 mM concentration.
A short description of experiment [14]: Competition percent of compound with DMSO for hydroxyl radical was determined at 0.1 mM concentration.
In experiment [15] the target is Serine protease 1 (Homo sapiens) (UniProt P07477). Description: Compound was evaluated for in vitro inhibition of trypsin acting as esterase at 1 mM concentration.
Experiment [16] has as its target T2, Seed linoleate 13S-lipoxygenase-1 (Glycine max) (UniProt P08170).
T2 sequence (whole entry): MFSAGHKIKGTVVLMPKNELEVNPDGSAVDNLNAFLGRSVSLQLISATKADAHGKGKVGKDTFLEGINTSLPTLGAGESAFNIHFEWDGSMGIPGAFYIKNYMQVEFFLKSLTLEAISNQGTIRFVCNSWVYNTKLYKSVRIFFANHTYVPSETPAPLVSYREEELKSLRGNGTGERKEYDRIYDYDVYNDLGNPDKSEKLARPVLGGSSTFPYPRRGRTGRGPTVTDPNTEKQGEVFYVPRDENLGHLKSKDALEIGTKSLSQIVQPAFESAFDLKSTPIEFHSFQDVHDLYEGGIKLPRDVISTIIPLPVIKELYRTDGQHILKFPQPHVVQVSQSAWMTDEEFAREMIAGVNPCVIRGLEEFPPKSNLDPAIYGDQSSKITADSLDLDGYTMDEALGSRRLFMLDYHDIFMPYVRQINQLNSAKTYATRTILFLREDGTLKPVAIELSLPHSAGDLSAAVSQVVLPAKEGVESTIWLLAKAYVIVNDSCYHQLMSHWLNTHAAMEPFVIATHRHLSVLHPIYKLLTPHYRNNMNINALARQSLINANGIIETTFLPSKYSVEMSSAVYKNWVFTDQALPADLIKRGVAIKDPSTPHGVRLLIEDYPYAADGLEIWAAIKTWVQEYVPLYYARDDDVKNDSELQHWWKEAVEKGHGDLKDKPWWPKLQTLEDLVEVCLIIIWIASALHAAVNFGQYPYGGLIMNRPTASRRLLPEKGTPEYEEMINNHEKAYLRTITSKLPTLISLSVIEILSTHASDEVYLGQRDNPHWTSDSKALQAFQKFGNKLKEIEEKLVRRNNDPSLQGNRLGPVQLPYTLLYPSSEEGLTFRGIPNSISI
The experiment in a line: Compound was evaluated for in vitro inhibition of soybean lipoxygenase at 0.1 mM concentration.

Experiment [17] can be described thus: Compound was evaluated for percent inhibition of carrageenan induced rat paw edema at 0.005 mmol/kg. A general note: In the carrageenan paw model, swelling and tenderness develop within hours.
Experiment [18] has as its target Chymotrypsinogen B (Homo sapiens) (UniProt P17538). The experiment in a line: Compound was evaluated for in vitro inhibition of chymotrypsinogen induced proteolysis at 1 mM concentration.
Experiment [19] deals with T2, Seed linoleate 13S-lipoxygenase-1 (Glycine max). The experiment in a line: Compound was evaluated for in vitro inhibition of soybean lipoxygenase at 1 mM concentration.
A short description of experiment [20]: Interaction percent with DPPH after 20 minutes was determined at 0.1 mM concentration.
In experiment [21] the target is Chymotrypsinogen B (Homo sapiens) (UniProt P17538). The experiment in a line: Compound was evaluated for in vitro inhibition of chymotrypsinogen acting as esterase at 1 mM concentration.
Experiment [22] has as its target T1, Beta-glucuronidase (Bos taurus). Description: Compound was evaluated for in vitro inhibition of beta-glucuronidase at 0.1 mM concentration.
Experiment [23] has as its target Chymotrypsinogen B (Homo sapiens) (UniProt P17538). The experiment in a line: Compound was evaluated for in vitro inhibition of chymotrypsinogen induced proteolysis at 0.1 mM concentration; no action.
Experiment [24] deals with T2, Seed linoleate 13S-lipoxygenase-1 (Glycine max). Description: Compound was evaluated for in vitro inhibition of soybean lipoxygenase at 0.1 mM concentration; no action.

Usually inhibition stands for how much of the control response was suppressed. Broadly, the inhibition in vivo is the share of the control response that was lost under treatment. Regarding `Cc1ccc2ccc(=O)oc2c1`, the RA came out at 5.4% in [1]; 3.5% in [2]; 2.05% in experiment [3]; 1.61% in [4]; 2.5% in experiment [13]; 0.29% in experiment [20]. Besides, the inhibition in [5] is 90.4%; in experiment [6] it was “No action”; in [8], 95.9%; in experiment [9] it was 100%; in experiment [10], 16.4%; in experiment [11] it was 48.1%. Besides, the inhibition in experiment [12] came to 13.6%; in experiment [15], 88.7%; in [16], 73.5%; in [18], 97.4%; in [19], 88.9%; in experiment [21] it was 97.7%. Besides, the Competition in experiment [7] was determined as 30.2%; in experiment [14] it was 43.8%. For the same compound, the inhibition in vivo at 5 µmol/kg in experiment [17] stood at 55.1%.

`CC(O)Cc1ccc2ccc(=O)oc2c1` (configuration not stated): the RA in experiment [1] is 16.8%; in experiment [2] it was 25.6%; in experiment [3], 22.9%; in [4], 18.4%; in [13], 13.3%; in experiment [20], 14.5%. Also, the inhibition worked out at 41.1% in experiment [5]; 7.5% in experiment [22]; 92.3% in experiment [8]; 95.4% in experiment [9]; 31.3% in experiment [10]; 29.3% in [12]. The inhibition result in experiment [23] was “No action”; in [15], 99.4%; in experiment [24] it was “No action”; in experiment [18] it was 63.1%; in experiment [19], 100%; in experiment [21] it was 100%. Besides, the Competition in experiment [7] was 80.7%; in [14], 81.8%. Further, the inhibition in vivo at 5 µmol/kg in experiment [17] was determined as 18%.

Compound `COc1ccc2c(c1)c(CC(=O)O)c(C)n2C(=O)c1ccc(Cl)cc1` [INDOMETHACIN] displayed an inhibition in vivo at 5 µmol/kg in [17] of 47%.

`O=Cc1ccc2ccc(=O)oc2c1`: the RA in experiment [1] was determined as 7.1%; in [2], 12.8%; in experiment [3], 16.2%; in [4], 2.49%; in [13], 3.5%; in experiment [20], 1.47%. The inhibition in experiment [5] is 83.4%; in [6] it was “No action”; in experiment [8] it was 98.9%; in experiment [9], 100%; in experiment [10], 22.7%; in experiment [11], 32.8%. Also, the inhibition worked out at 12.6% in experiment [12]; 99.1% in experiment [15]; 8.6% in [16]; 96.6% in experiment [18]; 89.7% in [19]; 98.9% in experiment [21]. The Competition was 33.9% in [7] and 35.2% in [14]. Further, in experiment [17], the inhibition in vivo at 5 µmol/kg worked out at 29.3%.

In the case of `O=c1ccc2ccc(/C=N/c3ccccc3)cc2o1`, the RA came to 10.6% in experiment [1]; 11.6% in [2]; 14.3% in experiment [3]; 13.5% in [4]; 10% in experiment [13]; 12.9% in [20]. Moreover, the inhibition in [5] was 35.3%; in experiment [22] it was 26.1%; in experiment [8], 95.4%; in experiment [9], 95.9%; in experiment [10], 10%; in experiment [11], 90.5%. The inhibition in experiment [12] worked out at 22.6%; in experiment [15], 97.6%; in experiment [16], 54.3%; in experiment [18], 73.9%; in [19], 100%; in experiment [21], 83.4%. Moreover, the Competition in experiment [7] amounted to 72.2%; in experiment [14], 89.6%. Moreover, the inhibition in vivo at 5 µmol/kg in [17] was determined as 42.5%.

Turning to `O=c1ccc2ccc(/C=N/N=C/c3ccc4ccc(=O)oc4c3)cc2o1`, the RA amounted to 8.4% in [1]; 67.5% in experiment [2]; 64.4% in experiment [3]; 6.3% in experiment [4]; 9.9% in experiment [13]; 7.04% in [20]. The inhibition amounted to 99.9% in experiment [5]; 2.3% in experiment [22]; 100% in experiment [8]; 100% in [9]; 29.9% in [10]; 24.5% in experiment [11]. Further, the inhibition was found to be 9.4% in experiment [12]; 65.4% in [15]; 8.6% in [16]; 100% in experiment [18]; 10.2% in experiment [19]; 65.2% in experiment [21]. Besides, the Competition in experiment [7] is 44.5%; in [14], 45.3%. This compound registered an inhibition in vivo at 5 µmol/kg in experiment [17] of 54%.

Regarding `O=c1ccc2ccc(/C=N/O)cc2o1`, the RA turned out to be 7.1% in [1]; 12.8% in experiment [2]; 9.7% in experiment [3]; 3.52% in experiment [4]; 4.8% in experiment [13]; 0.29% in [20]. The inhibition in [5] was 70.7%; in [6], “No action”; in [8] it was 100%; in experiment [9] it was 77.7%; in [10], 28.5%; in experiment [11], 37.4%. The inhibition in experiment [12] was 20.3%; in [15], 98.5%; in experiment [16] it was 37.2%; in experiment [18], 98.7%; in experiment [19], 98.8%; in experiment [21] it was 100%. Moreover, the Competition in experiment [7] was determined as 43.4%; in experiment [14], 50.8%. This compound came in with an inhibition in vivo at 5 µmol/kg in [17] of 58.6%.

Take `O=c1ccc2ccccc2o1` [COUMARIN]: the RA in [2] worked out at 6.7%; in experiment [3], 5.8%; in experiment [13], 21%; in [20], 4.9%. Also, the inhibition was 12.7% in [5]; 95.9% in experiment [9]; 28.5% in [10]; “No action” in [11]; 5% in experiment [12]; 98% in [15]. Also, the inhibition in experiment [18] came to 89.3%; in experiment [19], 15.1%; in experiment [21], 63.9%. This compound gave a Competition in experiment [14] of 78%. In addition, the inhibition in vivo at 5 µmol/kg in experiment [17] was 30.2%.

The values above are taken from ChEMBL document CHEMBL1147420, “Synthesis and biological evaluation of novel coumarin derivatives with a 7-azomethine linkage” (2004).
